pIC50: −log10 of the molar value. Oligonucleotides are written 5' to 3', each unit as a sugar letter and its base; * is a phosphorothioate linkage, no mark a phosphodiester; rarer units and linkages stand in square brackets, end groups in braces. Plain capitals give the bases only. e = 2'-O-(2-methoxyethyl) (MOE); k = constrained ethyl (cEt); [5mC] = 5-methylcytosine; d = 2'-deoxy (DNA)
Tests used:
AR mRNA [1] = assay: Antisense inhibition of human AR in HuVEC cells, single concentration (electroporation, qRT-PCR RTS3559); assay type: cell-based
Method in brief: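 AR mRNA levels were measured with human primer-probe set RTS3559 and adjusted for total RNA (RIBOGREEN). Cells were HuVEC, with each antisense oligonucleotide delivered by electroporation at one concentration.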

AR mRNA [2] = assay: Dose-dependent antisense inhibition of human AR in HuVEC cells (electroporation, qRT-PCR RTS3559, IC50); assay type: cell-based; conditions: HuVEC
Method in brief: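 HuVEC cells dosed with antisense oligonucleotides by electroporation and treated approximately 16 hours. AR mRNA quantified by real-time qPCR with primer probe set RTS3559 and normalised to total RNA by RIBOGREEN; IC50 from dose-response.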

AR mRNA [3] = assay: AR mRNA levels in LMR20 cells (with/without DHT or R1881); assay type: cell-based, human; conditions: LMR20 cells; for AR mRNA levels (% baseline value) after treatment with DHT: DHT 10 nM 72 hrs; for AR mRNA levels (% baseline value) after treatment with R1881: R1881 10 nM 72 hrs; for AR mRNA levels (% baseline value) of cells without AR agonist treatment: no AR agonist
Procedure: (§1) LMR20 cells were plated at 1,500 cells per well in phenol red-free medium with CSS.

[4] = system: prostate-specific antigen (PSA) mRNA; assay: PSA mRNA levels in LMR20 cells; assay type: cell-based, human; conditions: LMR20 cells; for PSA mRNA levels (% baseline value) after treatment with DHT: DHT 10 nM 72 hrs; for PSA mRNA levels (% baseline value) after treatment with R1881: R1881 10 nM 72 hrs; for PSA mRNA levels (% baseline value) of cells without AR agonist treatment: no AR agonist
Procedure: LMR20 cells were plated at 1,500 cells per well in phenol red-free medium with CSS. […] Results are presented in Tables 43-45 as mRNA levels expressed as a percentage of the baseline values. mRNA levels may be lowered or increased after treatment.

TMPRSS2 mRNA = TMPRSS2 mRNA levels in LMR20 cells; assay type: cell-based, human; conditions: LMR20 cells; for TMPRSS2 mRNA levels (% baseline value) after treatment with DHT: DHT 10 nM 72 hrs; for TMPRSS2 mRNA levels (% baseline value) after treatment with R1881: R1881 10 nM 72 hrs; for TMPRSS2 mRNA levels (% baseline value) of cells without AR agonist treatment: no AR agonist
Procedure: as §1

AR mRNA [5] = assay: AR mRNA in LnCaP cells by free uptake (hAR_LTS00943); assay type: cell-based, human; conditions: 24 hrs
Procedure: Cells were plated at a concentration of 4,000 cells/well in 96-well plates. ISIS oligonucleotides, specified in Table 68, were added individually at 0.02 μM, 0.10 μM, 0.50 μM, 2.50 μM, or 10.00 μM. After an incubation period of 24 hrs, mRNA levels were measured using primer probe set hAR_LTS00943.

AR mRNA [6] = assay: AR mRNA in liver, heart, skeletal muscle, kidney, prostate of cynomolgus monkeys; assay type: in vivo; conditions: cynomolgus monkey, 40 mg/kg subcutaneously; for Percent Inhibition of AR mRNA relative to the PBS control, Heart: weeks 1 to 6, Heart; for Percent Inhibition of AR mRNA relative to the PBS control, Kidney: weeks 1 to 6, Kidney; for Percent Inhibition of AR mRNA relative to the PBS control, Liver: weeks 1 to 6, Liver; for Percent Inhibition of AR mRNA relative to the PBS control, Prostate: weeks 1 to 6, Prostate; for Percent Inhibition of AR mRNA relative to the PBS control, Skeletal Muscle: weeks 1 to 6, Skeletal Muscle
Procedure: Cynomolgus monkeys were treated with ISIS antisense oligonucleotides selected from studies described above. Antisense oligonucleotide efficacy and tolerability were evaluated. The human antisense oligonucleotides tested are cross-reactive with the rhesus genomic sequence (GENBANK Accession No. NW_001218131.1 truncated from nucleotides 134001 to 308000 and designated herein as SEQ ID NO: 189). The target start site and target region of each oligonucleotide to SEQ ID NO: 189, as well as the details of their chemistry and sequence, is presented in Table 133.
RNA was extracted from liver, heart, skeletal muscle, kidney, and prostate tissues for real-time PCR analysis of AR using primer probe set RTS3559. The results were normalized to RIBOGREEN®. Results are presented as percent inhibition of AR mRNA, relative to PBS control.

560131 (antisense kT*kT*kG*dA*dT*dT*dT*dA*dA*dT*dG*dG*kT*kT*kG*e[5mC]) [compound 560131]
% inhibition (AR mRNA [1]; 250 nM ASO, ~24 h, Table 7): 74%
percent inhibition of AR (AR mRNA [2]; 31.25 nM, ~16 h, Table 8): 16%
percent inhibition of AR (AR mRNA [2]; 62.5 nM, ~16 h, Table 8): 48%
percent inhibition of AR (AR mRNA [2]; 125.0 nM, ~16 h, Table 8): 65%
percent inhibition of AR (AR mRNA [2]; 500.0 nM, ~16 h, Table 8): 89%
percent inhibition of AR (AR mRNA [2]; 1000.0 nM, ~16 h, Table 8): 97%
pIC50 (AR mRNA [2]; ~16 h, Table 8): 7.05
AR mRNA levels (% baseline value) after treatment with DHT (AR mRNA [3]; ASO 0.04 μM): 89 % baseline value
AR mRNA levels (% baseline value) after treatment with DHT (AR mRNA [3]; ASO 0.20 μM): 55 % baseline value
AR mRNA levels (% baseline value) after treatment with DHT (AR mRNA [3]; ASO 1.0 μM): 25 % baseline value
AR mRNA levels (% baseline value) after treatment with DHT (AR mRNA [3]; ASO 5.0 μM): 20 % baseline value
AR mRNA levels (% baseline value) after treatment with R1881 (AR mRNA [3]; ASO 0.04 μM): 87 % baseline value
AR mRNA levels (% baseline value) after treatment with R1881 (AR mRNA [3]; ASO 0.20 μM): 65 % baseline value
AR mRNA levels (% baseline value) after treatment with R1881 (AR mRNA [3]; ASO 1.0 μM): 30 % baseline value
AR mRNA levels (% baseline value) after treatment with R1881 (AR mRNA [3]; ASO 5.0 μM): 26 % baseline value
AR mRNA levels (% baseline value) of cells without AR agonist treatment (AR mRNA [3]; ASO 0.04 μM): 107 % baseline value
AR mRNA levels (% baseline value) of cells without AR agonist treatment (AR mRNA [3]; ASO 0.20 μM): 74 % baseline value
AR mRNA levels (% baseline value) of cells without AR agonist treatment (AR mRNA [3]; ASO 1.0 μM): 29 % baseline value
AR mRNA levels (% baseline value) of cells without AR agonist treatment (AR mRNA [3]; ASO 5.0 μM): 17 % baseline value
PSA mRNA levels (% baseline value) after treatment with DHT ([4]; ASO 0.04 μM): 74 % baseline value
PSA mRNA levels (% baseline value) after treatment with DHT ([4]; ASO 0.20 μM): 61 % baseline value
PSA mRNA levels (% baseline value) after treatment with DHT ([4]; ASO 1.0 μM): 35 % baseline value
PSA mRNA levels (% baseline value) after treatment with DHT ([4]; ASO 5.0 μM): 35 % baseline value
PSA mRNA levels (% baseline value) after treatment with R1881 ([4]; ASO 0.04 μM): 92 % baseline value
PSA mRNA levels (% baseline value) after treatment with R1881 ([4]; ASO 0.20 μM): 77 % baseline value
PSA mRNA levels (% baseline value) after treatment with R1881 ([4]; ASO 1.0 μM): 44 % baseline value
PSA mRNA levels (% baseline value) after treatment with R1881 ([4]; ASO 5.0 μM): 35 % baseline value
PSA mRNA levels (% baseline value) of cells without AR agonist treatment ([4]; ASO 0.04 μM): 113 % baseline value
PSA mRNA levels (% baseline value) of cells without AR agonist treatment ([4]; ASO 0.20 μM): 83 % baseline value
PSA mRNA levels (% baseline value) of cells without AR agonist treatment ([4]; ASO 1.0 μM): 75 % baseline value
PSA mRNA levels (% baseline value) of cells without AR agonist treatment ([4]; ASO 5.0 μM): 71 % baseline value
TMPRSS2 mRNA levels (% baseline value) after treatment with DHT (TMPRSS2 mRNA; ASO 0.04 μM): 112 % baseline value
TMPRSS2 mRNA levels (% baseline value) after treatment with DHT (TMPRSS2 mRNA; ASO 0.20 μM): 108 % baseline value
TMPRSS2 mRNA levels (% baseline value) after treatment with DHT (TMPRSS2 mRNA; ASO 1.0 μM): 93 % baseline value
TMPRSS2 mRNA levels (% baseline value) after treatment with DHT (TMPRSS2 mRNA; ASO 5.0 μM): 71 % baseline value
TMPRSS2 mRNA levels (% baseline value) after treatment with R1881 (TMPRSS2 mRNA; ASO 0.04 μM): 132 % baseline value
TMPRSS2 mRNA levels (% baseline value) after treatment with R1881 (TMPRSS2 mRNA; ASO 0.20 μM): 117 % baseline value
TMPRSS2 mRNA levels (% baseline value) after treatment with R1881 (TMPRSS2 mRNA; ASO 1.0 μM): 88 % baseline value
TMPRSS2 mRNA levels (% baseline value) after treatment with R1881 (TMPRSS2 mRNA; ASO 5.0 μM): 76 % baseline value
TMPRSS2 mRNA levels (% baseline value) of cells without AR agonist treatment (TMPRSS2 mRNA; ASO 0.04 μM): 92 % baseline value
TMPRSS2 mRNA levels (% baseline value) of cells without AR agonist treatment (TMPRSS2 mRNA; ASO 0.20 μM): 67 % baseline value
TMPRSS2 mRNA levels (% baseline value) of cells without AR agonist treatment (TMPRSS2 mRNA; ASO 1.0 μM): 52 % baseline value
TMPRSS2 mRNA levels (% baseline value) of cells without AR agonist treatment (TMPRSS2 mRNA; ASO 5.0 μM): 45 % baseline value
Percent inhibition of AR mRNA (AR mRNA [5]; 0.02 μM): 0%
Percent inhibition of AR mRNA (AR mRNA [5]; 0.1 μM): 0%
Percent inhibition of AR mRNA (AR mRNA [5]; 0.5 μM): 13%
Percent inhibition of AR mRNA (AR mRNA [5]; 10 μM): 57%
Percent Inhibition of AR mRNA relative to the PBS control, Heart (AR mRNA [6]): 32%
Percent Inhibition of AR mRNA relative to the PBS control, Kidney (AR mRNA [6]): 19%
Percent Inhibition of AR mRNA relative to the PBS control, Liver (AR mRNA [6]): 65%
Percent Inhibition of AR mRNA relative to the PBS control, Prostate (AR mRNA [6]): 27%
Percent Inhibition of AR mRNA relative to the PBS control, Skeletal Muscle (AR mRNA [6]): 30%

584149 (kG*kT*k[5mC]*dA*dA*dT*dA*dT*d[5mC]*dA*dA*dA*dG*k[5mC]*kA*k[5mC]) [compound 584149]
% inhibition (AR mRNA [1]; Table 24, 1,000 nM oligonucleotide, electroporation, approximately 24 hours, relative to untreated control): 85%
percent inhibition of AR, 46.9 nM (AR mRNA [2]; Table 35, 46.9 nM, electroporation, approximately 16 hours): 11%
percent inhibition of AR, 187.5 nM (AR mRNA [2]; Table 35, 187.5 nM, electroporation, approximately 16 hours): 37%
percent inhibition of AR, 750.0 nM (AR mRNA [2]; Table 35, 750.0 nM, electroporation, approximately 16 hours): 68%
percent inhibition of AR, 3000.0 nM (AR mRNA [2]; Table 35, 3000.0 nM, electroporation, approximately 16 hours): 89%
pIC50 (AR mRNA [2]; Table 35, electroporation, approximately 16 hours): 6.51
Percent inhibition of AR mRNA (AR mRNA [5]; 0.02 μM): 0%
Percent inhibition of AR mRNA (AR mRNA [5]; 0.1 μM): 0%
Percent inhibition of AR mRNA (AR mRNA [5]; 0.5 μM): 0%
Percent inhibition of AR mRNA (AR mRNA [5]; 10 μM): 39%
Percent Inhibition of AR mRNA relative to the PBS control, Heart (AR mRNA [6]): 33%
Percent Inhibition of AR mRNA relative to the PBS control, Kidney (AR mRNA [6]): 77%
Percent Inhibition of AR mRNA relative to the PBS control, Liver (AR mRNA [6]): 93%
Percent Inhibition of AR mRNA relative to the PBS control, Prostate (AR mRNA [6]): 45%
Percent Inhibition of AR mRNA relative to the PBS control, Skeletal Muscle (AR mRNA [6]): 63%

— USRE48461E1, “Modulation of androgen receptor expression” (Ionis Pharmaceuticals, Inc., priority 2012, dated 2021)
